Laboratory results published in patent US5889020A, “Treatment of normotensive glaucoma with angiotensin II antagonists” (CIBA Vision Corporation, priority 1994, dated 1999).

Tests used:
ciliary artery = experiment: Ciliary artery contraction, myograph method (tissue ring contracted with angiotensin II); design: species or system pig
Description: For the myographic determinations, a short segment (7-8 mm) of the ciliary arteries of fresh eyes, e.g. pig's eyes, is dissected and cut into small rings of thickness 2 mm under a microscope (cf. for this K. Yao et al. Invest. Ophthalmaol. Vis. Sci. 32, 1791-1798(1991) and M. J. Mulvany, W. Halpern Circ. res. 41, 19-26(1977)). During the preparation, the tissue is immersed in modified Krebs-Ringer bicarbonate solution. These rings (diameter about 200-400 μm) are installed in the myograph system without delay. Such a tissue ring is stretched using two tungsten wires (diameters 30 and 80 μm), the wires being passed through the lumen. One wire is connected to the power transmission, the other to a micromanipulator for adjustment of muscle length. The tissue ring is immersed in a control solution during the experiment (37°; 95% O2; 5% CO2; pH=7.4) and equilibrated for 45 minutes before testing.
The tissue ring is stretched stepwise and at the same time 100 mM KCl is added in each case. The optimum passive tension is then defined as the tension at which the contraction with 100 mM KCl is greatest. For ciliary arteries, an averaged value for the tension of 977 mg±60 mg is found. The active residual tone of this tissue is defmed as the difference between the optimum passive tension and the tension after a maximum relaxation with 10^-6 molar bradykinin. The corresponding tension is 174 mg±38 mg. In all subsequent experiments, the abovementioned tissue rings are slowly stretched at 100 mg intervals until the optimum is reached.
Before the actual experiment, the endothelial function of such a tissue ring is checked for intactness. The tissue rings are challenged to contract by using 3. 10^-7 molar serotonin solution and in the experimental procedure described above. Thereafter it is checked whether a complete relaxation of the contracted tissue ring occurs with 3. 10^-7 molar bradykinin solution. If this condition is fulfilled, the tissue is held to be intact.
Determination of the ciliary artery contraction using the myograph method
After it was verified as described above that the endothelial functions of a tissue ring of a ciliary artery are intact, the tissue ring preparation is incubated (contracted) with 10^-7 M angiotensin II, and then relaxed with various doses of the angiotensin II antagonist valsartan.

[1] = test system: perfused isolated pig's eye; experiment: Ophthalmic flow in the perfused isolated pig's eye
Protocol: For the perfusion method on the isolated pig's eye, the fatty tissue which surrounds the extraocular muscles is carefully removed. During this preparation, the ocular globe is surrounded with modified Krebs-Ringer bicarbonate solution at 4° C. The ocular globe is then cannulated under the microscope using a polyethylene cannula (600 μm diameter), namely via the common ophthalmic artery.
Following this preparation, the ocular globe is connected via the polyethylene cannula to a Langendorff perfusion system, and in this way supplied at the latest 1 hour after the start of preparation with a filtered and oxygenated Krebs solution which contains 0.5% albumin.
The catheterization of the common ophthalmic artery guarantees the complete perfusion both of the choroidal and of the retinal tissue and of the small extraocular muscular arteries. The perfused ocular globe is immersed in a thermostated (37° C.) control bath with a glass jacket with the cornea pointed downwards. The overflow rate (ml/min) in the bath corresponds to the ophthalmic flow. Before testing a composition, the ocular globe is equilibrated for 20 minutes. In a control experiment, it is shown that the ophthalmic flow in the experimental procedure selected remains constant for about 120 minutes after the start of the perfusion. All tests are therefore carried out within this time frame.
A perfused isolated pig's eye is first treated as described above with a control solution and then with a solution comprising angiotensin II (10^-6 M). After the determination of the angiotensin II effect, valsartan (10^-5 M) is additionally added on top of the above exposure. The relative ophthalmic flow rate resulting in this way is shown below.

Compound	Relative contraction in comparison to 100 mM KCl (ciliary artery; ciliary artery ring contracted with 10^-7 M angiotensin II, valsartan 10^-5 M) [%]	Relative contraction in comparison to 100 mM KCl (ciliary artery; ciliary artery ring contracted with 10^-7 M angiotensin II, valsartan 10^-6 M) [%]	Relative contraction in comparison to 100 mM KCl (ciliary artery; ciliary artery ring contracted with 10^-7 M angiotensin II, valsartan 10^-7 M) [%]	Relative contraction in comparison to 100 mM KCl (ciliary artery; ciliary artery ring contracted with 10^-7 M angiotensin II, valsartan 10^-8 M) [%]	Relative contraction in comparison to 100 mM KCl (ciliary artery; ciliary artery ring contracted with 10^-7 M angiotensin II, valsartan 10^-9 M) [%]	Contracting effect of angiotensin II on the ciliary artery (ciliary artery; valsartan added after 10^-7 M angiotensin II)	Decrease in the relative ophthalmic flow ([1]; angiotensin II 10^-6 M plus valsartan 10^-5 M) [%]	Blood flow-decreasing action of angiotensin II ([1]; valsartan 10^-5 M on top of angiotensin II 10^-6 M)	Relative contraction in comparison to 100 mM KCl (ciliary artery; 10^-7 M angiotensin II alone, no valsartan (pure angiotensin II effect)) [%]	Decrease in the relative ophthalmic flow ([1]; angiotensin II 10^-6 M alone) [%]
CCCCC(=O)N(Cc1ccc(-c2ccccc2-c2nn[nH]n2)cc1)[C@H](C(=O)O)C(C)C [valsartan]	0.9 ± 0.45	0.93 ± 0.4	5.15 ± 1.6	8.1 ± 1.5	18.7 ± 2.2	quantitatively abolished	6.82 ± 3.02	strongly reduced		
Angiotensin II: contracting agonist used to contract the ciliary artery and decrease ophthalmic flow (DRVYIHPF; Angiotensin-2; UniProt P01019 25-32, looked up)									27.9 ± 8.7	24.5 ± 3.05
